Results published in patent EP1321169A1, “Combination of a serotonin receptor antagonist with a histidine decarboxylase inhibitor as a medicament” (Biofrontera Pharmaceuticals AG, priority 2001, dated 2003).

Tests used:
[1] = biological target: T1, human Histamine H2 receptor (Homo sapiens, UniProt P25021); assay: Cloned human H2 receptor binding assay, [3H]-thiotidine, COS-7 cells; details: n.A. = no affinity (= no inhibition of histamine activity) detected, read-out: Receptor Affinity: pK Values, measured receptor H2 (converted)
T1 construct: expressed in transfected cells; host or cells: COS-7 (transient)
Protocol: (§1) COS-7 cells were transiently transfected with an expression plasmid pCineohH1, pCineohH2, pCineohH3 and pCineohH4 encoding the human Histamine H1, H2 H3 or H4 receptor, respectively. Transfected cells were harvested after 48 h, homogenized in ice-cold 50 mM Na2/potassium phosphate buffer (pH 7.4) and used for radioligand binding studies. Cell homogenates (40 - 50 µg of protein) were incubated for 30 min at 25°C in 50 mM Na2/potassium phosphate buffer (pH 7.4) in 400 µl with the various concentrations of either [^3H]-mepyramine, [^3H]-thiotidine, [^3H]-R-α-Methylhistamine, and [^3H]-pyramilamine for cells expressing recombinant human H1, H2, H3 and H4 receptors, respectively. The nonspecific binding was defined in the presence of 1 µM mianserin. In displacement studies, cell homogenated were incubated either with 1 nM [^3H]-mepyramine, 15 nM [^3H]-thiotidine, 0.5 nM [^3H]-R-α-Methylhistamine, or 15 nM [^3H]-pyramilamine and increasing concentrations of competing ligands. The incubations were stopped by rapid dilution with 3 ml of ice-cold 50 mM Na2/potassium phosphate buffer (pH 7.4). The bound radioactivity was separated by filtration through Whatman GF/C filters that had been treated with 0.3 % polyethyleneimine. Filters were washed twice in 3 ml of buffer and radioactivity retained on the filters was measured by liquid scintillation counting.

[2] = repeated administration; cited from earlier work
[3] = tested on: human histamine receptors; assay: Cloned human H1, H2, H3 and H4 receptor binding assay (summary statement); details: statement in words
Protocol: as §1

T1 sequence (P25021 whole entry): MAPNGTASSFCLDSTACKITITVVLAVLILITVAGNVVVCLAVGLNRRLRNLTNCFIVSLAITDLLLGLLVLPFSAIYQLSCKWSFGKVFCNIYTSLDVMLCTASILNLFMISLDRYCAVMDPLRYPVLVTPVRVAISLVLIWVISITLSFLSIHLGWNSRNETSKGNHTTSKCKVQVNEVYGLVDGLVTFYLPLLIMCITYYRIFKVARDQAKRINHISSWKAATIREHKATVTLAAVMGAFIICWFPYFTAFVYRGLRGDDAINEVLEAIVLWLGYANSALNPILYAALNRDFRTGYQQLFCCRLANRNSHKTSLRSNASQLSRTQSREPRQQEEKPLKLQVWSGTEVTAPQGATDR

| Compound | Ki [1] [µM] | sedative effects [2] | tissue histamine content [2] | affinity for the human histamine receptors [3] |
| --- | --- | --- | --- | --- |
| CCOc1ccc2c(c1)Sc1cccc(O)c1C2=C1CCN(C)CC1 [4-(6-Ethoxy-1-hydroxy-thioxanthen-9-yliden)-1-methyl-piperidine] | 3.24 | – | – | – |
| COc1cccc2c1C(=C1CCN(C)CC1)c1ccc(C(C)C)cc1S2 [4-(6-Isopropyl-1-methoxy-thioxanthen-9-yliden)-1-methyl-piperidine] | 1.05 | – | – | – |
| N[C@@](CF)(Cc1cnc[nH]1)C(=O)O [FMH, (S)-α-fluoromethylhistidine] | – | only very mild sedative effects | strong reduction | low affinity |
| CCOc1ccc2c(c1)Sc1cccc(OC)c1C2=C1CCN(C)CC1 [4-(6-Ethoxy-1-methoxy-thioxanthen-9-yliden)-1-methyl-piperidine] | 2.04 | – | – | – |
